{"source": "patent US20150343016A1", "about": "“CHEMICAL ENTITIES AND THERAPEUTIC USES THEREOF” (The Regents of the University of Colorado, a body corporate, priority 2010, published 2015)", "system": "wild type Drosophila larvae", "assay": "Drosophila larval survival to adulthood (eclosion), drug with and without IR, wild type", "format": "in vivo", "details": "for effect on the killing effect of radiation (+IR versus +both): wild type", "method": "To validate the identification of Bouvardin from the primary screen, the effect of this molecule on Drosophila larvae alone or in combination with radiation were assessed (FIG. 12). The screen was performed using irradiated mutant larvae. Hits from the screen were defined as those that reduced the survival of IRRADIATED larvae compared to the population of drugs being tested (approximately 80 molecules at a time) or compared to DMSO controls in the re-test. A hit could therefore act by enhancing the effect of radiation, or by simply killing larvae as a single agent, or both. To distinguish among these possibilities, hits from the screen were re-tested against larvae with and without irradiation.\nIn FIG. 12 survival after each treatment is expressed as the fraction of animals that emerged (“eclosed”) as viable adults. The averages have been normalized to the average fraction eclosed in no IR/drug control for the respective genotype. Error bars extend beyond fractional survival of 1.0 simply because of normalization. (A-C) Fraction eclosed for WT and grp and p53 mutants at 16 uM of Bouvardin, with and without IR. The data are averages of 3-8 biological replicates per sample. Dotted line on each graph denotes expected ‘fraction eclosed’ if drug and IR act additively. IR doses were 4000R for WT and grp and 3000R for p53 because of the higher radiation sensitivity of the latter. (D) Fraction eclosed for Minute mutants and yw controls after exposure to 0 (−IR) and 2000R (+IR) of X-rays. N ranged from 86-207 per genotype per treatment, in 3 biological replicates per sample. *=p<0.01; **=<0.001. 100R=1Gy. Error bar=1 standard deviation.\nThe activity of Bouvardin in Drosophila alone or in combination with ionizing radiation (IR) was assessed. Drug concentrations of 10-20 μM were used to approximate the conditions of the original screen. Third instar larvae were irradiated and cultured on medium containing drug. The survival of larvae was quantified 10 days later by measuring the rate of eclosion into adulthood. […] For example, IR alone reduces the eclosion of p53 mutants to 0.63±0.05 and 10 μM of drug reduces it to 0.82±0.15. The combination of Bouvardin and IR reduces eclosion to 0.49, nearly the exact number expected (0.63±0.05×0.82±0.15=0.51±0.10) if the two treatments produced an additive effect. The expected eclosion for additive effect of drug and radiation are denoted with a white dotted line in each graph.\nWild type flies were of the Sevelin stock. Mutants have been described before. p535A-1-4 results from targeted deletion of the gene, and is maintained and used as homogygotes. grpl (Chk1 mutants) results from a p-element insertion and is a genetic null. Homozygotes of the latter were identified by the lack of GFP marker on the balancer chromosome. Minute mutants were of the genotypes y[1]w[*]; P[w[+mC]=lacW]RpS131/CyO and P[lacW]RpL36G0471 w67c23/FM7a. Because Minute mutants were in yw or w background, y1w1 (Bloomington stock #1495) was used as ‘wild type’ control in these experiments.\nFeeding stage 3rd instar larvae were irradiated as previously described (2). Briefly, 120 hr old larvae were rinsed to remove food and passed through sizing sieves to obtain animals of uniform size. Larvae were placed in a Petri dish and irradiated using a TORREX X-ray generator, set at 115 kV and 5 mA (producing 2.4 Rads/sec or 1.44 Gy/min) Irradiated larvae were then cultured on cornmeal-agar media (2) containing drug or DMSO carrier. […]"}
{"smiles": "COc1ccc(C[C@H]2C(=O)N[C@H](C)C(=O)N(C)[C@@H]3C(=O)N(C)[C@@H](Cc4ccc(O)c(c4)Oc4ccc(cc4)[C@H]3O)C(=O)N[C@@H](C)C(=O)N[C@H](C)C(=O)N2C)cc1", "note": "(stereo in doubt) [Bouvardin, bouvardin]", "values": [{"measurement": "effect on the killing effect of radiation (+IR versus +both)", "result": "not wild type"}, {"measurement": "effect of drug alone on survival to adulthood", "setting": "wild type flies, bouvardin up to 100 μM, no IR", "result": "very little effect"}, {"measurement": "effect on the killing effect of radiation (+IR versus +both)", "setting": "listed as bouvardin", "result": "did not significantly reduce survival to adulthood"}]}
